Values after ≈ are worked out from the molar mass of the structure shown.
Legend:
Type in all cases: functional
Pseudomonas aeruginosa [1] = assay: Antimicrobial activity against Pseudomonas aeruginosa ATCC 27853 after 18 hrs by CLSI protocol based broth microdilution method; conditions: ATCC 27853, 18 h
Escherichia coli [2] = assay: Antimicrobial activity against Escherichia coli ATCC 25922 after 18 hrs by CLSI protocol based broth microdilution method; conditions: ATCC 25922, 18 h
Klebsiella pneumoniae [3] = assay: Antimicrobial activity against Klebsiella pneumoniae 700603 after 18 hrs by CLSI protocol based broth microdilution method; conditions: Klebsiella pneumoniae, 700603, 18 h
Staphylococcus aureus [4] = assay: Antimicrobial activity against Staphylococcus aureus SG 511 after 18 hrs by CLSI protocol based broth microdilution method; conditions: SG 511, 18 h
Enterococcus faecium = assay: Antimicrobial activity against Enterococcus faecium NCTC after 18 hrs by CLSI protocol based broth microdilution method
Acinetobacter baumannii = assay: Antimicrobial activity against Acinetobacter baumannii ATCC 17961 after 18 hrs by CLSI protocol based broth microdilution method; conditions: ATCC 17961, 18 h
Klebsiella aerogenes = assay: Antimicrobial activity against Enterobacter aerogenes ATCC 35029 after 18 hrs by CLSI protocol based broth microdilution method; conditions: ATCC 35029, 18 h
Pseudomonas aeruginosa [5] = assay: Antimicrobial activity against Pseudomonas aeruginosa under iron-sufficient condition by CLSI protocol based broth microdilution method
Pseudomonas aeruginosa [6] = assay: Antimicrobial activity against Pseudomonas aeruginosa KW799 under iron-sufficient condition by CLSI protocol based broth microdilution method
Klebsiella pneumoniae [7] = assay: Antimicrobial activity against Klebsiella pneumoniae ATCC 8303 under iron-deficient condition by CLSI protocol based broth microdilution method
Pseudomonas aeruginosa [8] = assay: Antimicrobial activity against Pseudomonas aeruginosa 61 under iron-sufficient condition by CLSI protocol based broth microdilution method
Pseudomonas aeruginosa [9] = assay: Antimicrobial activity against Pseudomonas aeruginosa PA6 under iron-sufficient condition by CLSI protocol based broth microdilution method
Pseudomonas aeruginosa [10] = assay: Antimicrobial activity against Pseudomonas aeruginosa under iron-deficient condition by CLSI protocol based broth microdilution method
Pseudomonas aeruginosa [11] = assay: Antimicrobial activity against Pseudomonas aeruginosa 61 under iron-deficient condition by CLSI protocol based broth microdilution method
Pseudomonas aeruginosa [12] = assay: Antimicrobial activity against Pseudomonas aeruginosa KW799 under iron-deficient condition by CLSI protocol based broth microdilution method
Pseudomonas aeruginosa [13] = assay: Antimicrobial activity against Pseudomonas aeruginosa PA6 under iron-deficient condition by CLSI protocol based broth microdilution method
Klebsiella pneumoniae [14] = assay: Antimicrobial activity against Klebsiella pneumoniae X68 under iron-deficient condition by CLSI protocol based broth microdilution method
Pseudomonas aeruginosa [15] = assay: Antimicrobial activity against Pseudomonas aeruginosa PAO1 under iron-deficient condition by CLSI protocol based broth microdilution method
Klebsiella pneumoniae [16] = assay: Antimicrobial activity against Klebsiella pneumoniae ATCC 8303 under iron-sufficient condition by CLSI protocol based broth microdilution method
Pseudomonas aeruginosa [17] = assay: Antimicrobial activity against Pseudomonas aeruginosa PA4 under iron-sufficient condition by CLSI protocol based broth microdilution method
Escherichia coli [18] = assay: Antimicrobial activity against Escherichia coli ATCC 25922 under iron-sufficient condition by CLSI protocol based broth microdilution method
Pseudomonas aeruginosa [19] = assay: Antimicrobial activity against Pseudomonas aeruginosa PA4 under iron-deficient condition by CLSI protocol based broth microdilution method
Klebsiella pneumoniae [20] = assay: Antimicrobial activity against Klebsiella pneumoniae X68 under iron-sufficient condition by CLSI protocol based broth microdilution method
Escherichia coli [21] = assay: Antimicrobial activity against Escherichia coli ATCC 25922 under iron-deficient condition by CLSI protocol based broth microdilution method
Pseudomonas aeruginosa [22] = assay: Antimicrobial activity against Pseudomonas aeruginosa PAO1 under iron-sufficient condition by CLSI protocol based broth microdilution method
Staphylococcus aureus [23] = assay: Antimicrobial activity against Staphylococcus aureus V41
Streptococcus pneumoniae = assay: Antimicrobial activity against Streptococcus pneumoniae PARK
Staphylococcus aureus [24] = assay: Antimicrobial activity against Staphylococcus aureus X1.1
Streptococcus = assay: Antimicrobial activity against Streptococcus AC283
Micrococcus luteus [25] = assay: Antimicrobial activity against Micrococcus luteus under iron-sufficient condition by broth microdilution method
Escherichia coli [26] = assay: Antimicrobial activity against Escherichia coli X580 under iron-deficient condition by broth microdilution method
Staphylococcus aureus [27] = assay: Antimicrobial activity against Staphylococcus aureus X1.1 under iron-sufficient condition by broth microdilution method
Micrococcus luteus [28] = assay: Antimicrobial activity against Micrococcus luteus under iron-deficient condition by broth microdilution method
Pseudomonas aeruginosa [29] = assay: Antimicrobial activity against Pseudomonas aeruginosa X620 under iron-deficient condition by broth microdilution method
Escherichia coli [30] = assay: Antimicrobial activity against Escherichia coli EC14 under iron-deficient condition by broth microdilution method
Pseudomonas aeruginosa [31] = assay: Antimicrobial activity against Pseudomonas aeruginosa X621 under iron-deficient condition by broth microdilution method
Pseudomonas aeruginosa [32] = assay: Antimicrobial activity against Pseudomonas aeruginosa X621 under iron-sufficient condition by broth microdilution method
Escherichia coli [33] = assay: Antimicrobial activity against Escherichia coli EC14 under iron-sufficient condition by broth microdilution method
Pseudomonas aeruginosa [34] = assay: Antimicrobial activity against Pseudomonas aeruginosa X620 under iron-sufficient condition by broth microdilution method
Escherichia coli [35] = assay: Antimicrobial activity against Escherichia coli X580 under iron-sufficient condition by broth microdilution method
Staphylococcus aureus [36] = assay: Antimicrobial activity against Staphylococcus aureus X1.1 under iron-deficient condition by broth microdilution method
[37] = tested on: Mycolicibacterium smegmatis; assay: Antitubercular activity against Mycobacterium smegmatis
[38] = tested on: Mycobacterium tuberculosis; assay: Antitubercular activity against Mycobacterium tuberculosis H37Rv

O=C(CCC(=O)N(O)CCCCCO)NCCCCCN(O)C(=O)CCC(=O)NCCCCCN(O)C(=O)CCC(=O)N[C@@H](C(=O)N[C@@H]1C(=O)N2C(C(=O)O)=C(Cl)CC[C@H]12)c1ccccc1
MIC (Pseudomonas aeruginosa [1]): > 128 µM | MIC (Escherichia coli [2]): 128 µM (≈ 122 µg/mL) | MIC (Klebsiella pneumoniae [3]): > 128 µM | MIC (Staphylococcus aureus [4]): 64 µM (≈ 60.9 µg/mL) | MIC (Enterococcus faecium): > 128 µM | MIC (Acinetobacter baumannii): 64 µM (≈ 60.9 µg/mL) | MIC (Klebsiella aerogenes): > 128 µM

O=C(CCC(=O)N(O)CCCCCO)NCCCCCN(O)C(=O)CCC(=O)N[C@@H](C(=O)N[C@@H]1C(=O)N2C(C(=O)O)=C(Cl)CC[C@H]12)c1ccccc1
MIC (Pseudomonas aeruginosa [1]): > 128 µM | MIC (Escherichia coli [2]): ≥ 128 µM | MIC (Klebsiella pneumoniae [3]): > 128 µM | MIC (Staphylococcus aureus [4]): 64 µM (≈ 48.1 µg/mL) | MIC (Enterococcus faecium): > 128 µM | MIC (Acinetobacter baumannii): 32 µM (≈ 24 µg/mL) | MIC (Klebsiella aerogenes): > 128 µM

CC1(C)S[C@@H]2[C@H](NC(=O)[C@H](NC(=O)CCC(=O)NC(CCCNC(=O)c3cccc(O)c3O)(CCCNC(=O)c3cccc(O)c3O)CCCNC(=O)c3cccc(O)c3O)c3ccc(O)cc3)C(=O)N2[C@H]1C(=O)O
MIC90 (Pseudomonas aeruginosa [5]): 25 µM (≈ 26.5 µg/mL) | MIC90 (Pseudomonas aeruginosa [6]): 12.5 to 25 µM (≈ 13.2 to 26.5 µg/mL) | MIC90 (Klebsiella pneumoniae [7]): > 100 µM | MIC90 (Pseudomonas aeruginosa [8]): 12.5 µM (≈ 13.2 µg/mL) | MIC90 (Pseudomonas aeruginosa [9]): > 200 µM | MIC90 (Pseudomonas aeruginosa [10]): 0.05 µM (≈ 0.0529 µg/mL) | MIC90 (Pseudomonas aeruginosa [11]): 0.083 µM (≈ 0.0878 µg/mL) | MIC90 (Pseudomonas aeruginosa [12]): 0.05 to 0.083 µM (≈ 0.0529 to 0.0878 µg/mL) | MIC90 (Pseudomonas aeruginosa [13]): > 200 µM | MIC90 (Klebsiella pneumoniae [14]): > 100 µM | MIC90 (Pseudomonas aeruginosa [15]): 0.39 µM (≈ 0.413 µg/mL) | MIC90 (Klebsiella pneumoniae [16]): > 200 µM | MIC90 (Pseudomonas aeruginosa [17]): 25 µM (≈ 26.5 µg/mL) | MIC90 (Escherichia coli [18]): 100 µM (≈ 106 µg/mL) | MIC90 (Pseudomonas aeruginosa [19]): 0.21 µM (≈ 0.222 µg/mL) | MIC90 (Klebsiella pneumoniae [20]): > 200 µM | MIC90 (Escherichia coli [21]): 6.25 µM (≈ 6.61 µg/mL) | MIC90 (Pseudomonas aeruginosa [22]): 50 µM (≈ 52.9 µg/mL)

O=C(CCC(=O)N(CCCCNC(=O)c1cccc(O)c1O)CCCNC(=O)c1cccc(O)c1O)N[C@@H]1C(=O)N2C(C(=O)O)=C(Cl)CC[C@H]12
MIC (Staphylococcus aureus [23]): 64 µg/mL (≈ 89.4 µM) | MIC (Streptococcus pneumoniae): 64 µg/mL (≈ 89.4 µM) | MIC (Staphylococcus aureus [24]): 64 µg/mL (≈ 89.4 µM) | MIC (Streptococcus): 16 µg/mL (≈ 22.3 µM)

O=C(CCC(=O)N(O)CCCCCO)NCCCCCN(O)C(=O)CCC(=O)NCCCCCN(O)C(=O)CCC(=O)N1CCN(c2cc3c(cc2F)c(=O)c(C(=O)O)cn3C2CC2)CC1
MIC (Pseudomonas aeruginosa [1]): > 128 µM | MIC (Escherichia coli [2]): > 128 µM | MIC (Klebsiella pneumoniae [3]): > 128 µM | MIC (Staphylococcus aureus [4]): 1 µM (≈ 0.933 µg/mL) | MIC (Enterococcus faecium): 64 µM (≈ 59.7 µg/mL) | MIC (Acinetobacter baumannii): ≥ 128 µM | MIC (Klebsiella aerogenes): 64 µM (≈ 59.7 µg/mL)

CN[C@H](CC(C)C)C(=O)N[C@H]1C(=O)N[C@@H](CC(N)=O)C(=O)N[C@H]2C(=O)N[C@H]3C(=O)N[C@H](C(=O)N[C@H](C(=O)O)c4cc(O)cc(O)c4-c4cc3ccc4O)[C@H](O)c3ccc(c(Cl)c3)Oc3cc2cc(c3O[C@@H]2O[C@H](CO)[C@@H](O)[C@H](O)[C@H]2O[C@H]2C[C@](C)(NC(=O)CCC(=O)N(CCCCNC(=O)c3cccc(O)c3O)CCCNC(=O)c3cccc(O)c3O)[C@H](O)[C@H](C)O2)Oc2ccc(cc2Cl)[C@H]1O
MIC (Micrococcus luteus [25]): 16 µM (≈ 31.2 µg/mL) | MIC (Escherichia coli [26]): 128 µM (≈ 249 µg/mL) | MIC (Staphylococcus aureus [27]): 32 µM (≈ 62.4 µg/mL) | MIC (Micrococcus luteus [28]): 32 µM (≈ 62.4 µg/mL) | MIC (Pseudomonas aeruginosa [29]): > 128 µM | MIC (Escherichia coli [30]): > 128 µM | MIC (Pseudomonas aeruginosa [31]): 32 µM (≈ 62.4 µg/mL) | MIC (Pseudomonas aeruginosa [32]): > 128 µM | MIC (Escherichia coli [33]): > 128 µM | MIC (Pseudomonas aeruginosa [34]): > 128 µM | MIC (Escherichia coli [35]): > 128 µM | MIC (Staphylococcus aureus [36]): 32 µM (≈ 62.4 µg/mL)

CCCCCCCCCCCCCCCCC(=O)N(O)CCCC[C@H](NC(=O)[C@@H]1COC(c2ccccc2O)=N1)C(=O)NC[C@H](NC(=O)CCCO[C@H]1O[C@@H]2O[C@@]3(C)CC[C@H]4[C@H](C)CC[C@@H]([C@H]1C)[C@@]24OO3)C(=O)N[C@H]1CCCCN(O)C1=O
MIC [37]: > 5 µg/mL | MIC [38]: 0.39 µg/mL (≈ 0.334 µM)

CC1(C)S[C@@H]2[C@H](NC(=O)[C@H](N)c3ccc(O)cc3)C(=O)N2[C@H]1C(=O)O [AMOXICILLIN]
MIC90 (Pseudomonas aeruginosa [5]): > 200 µM | MIC90 (Pseudomonas aeruginosa [6]): 0.46 to 200 µM (≈ 0.168 to 73.1 µg/mL) | MIC90 (Klebsiella pneumoniae [7]): > 100 µM | MIC90 (Pseudomonas aeruginosa [8]): 0.46 µM (≈ 0.168 µg/mL) | MIC90 (Pseudomonas aeruginosa [9]): > 200 µM | MIC90 (Pseudomonas aeruginosa [10]): > 200 µM | MIC90 (Pseudomonas aeruginosa [11]): 0.39 µM (≈ 0.143 µg/mL) | MIC90 (Pseudomonas aeruginosa [12]): 0.39 to 200 µM (≈ 0.143 to 73.1 µg/mL) | MIC90 (Pseudomonas aeruginosa [13]): > 200 µM | MIC90 (Klebsiella pneumoniae [14]): > 100 µM | MIC90 (Pseudomonas aeruginosa [15]): > 100 µM | MIC90 (Klebsiella pneumoniae [16]): 100 µM (≈ 36.5 µg/mL) | MIC90 (Pseudomonas aeruginosa [17]): > 200 µM | MIC90 (Escherichia coli [18]): 4.17 µM (≈ 1.52 µg/mL) | MIC90 (Pseudomonas aeruginosa [19]): > 100 µM | MIC90 (Klebsiella pneumoniae [20]): 100 µM (≈ 36.5 µg/mL) | MIC90 (Escherichia coli [21]): 4.17 µM (≈ 1.52 µg/mL) | MIC90 (Pseudomonas aeruginosa [22]): > 200 µM
